From patent US20100178365A1, “EPICATECHIN DEFICIENT GREEN TEA” (priority 2007, published 2010)

Tests used:
KATP channels = assay: inhibition of KATP channels and their ATP/PIP sensitivity; type: biochemical; settings: for effect on KATP channels: via allosteric interactions with phospholipids of the lipid membrane
Procedure: EGCG and ECG with gallate ester groups inhibited KATP channels via allosteric interactions with phospholipids of the lipid membrane. But the effective EGCG concentration was more than 10 μM. Further, EGCG is the only green tea epicatechin that decreases the sensitivity of ATP and PIP to the KATP channel. By this mechanism, we concluded that EGCG caused decrease in insulin secretion in response to glucose in the β-cell of pancreas. Patients with diabetes or people with a risk factor for diabetes should be careful because the effective concentration of EGCG for this mechanism could be 1-10 μM, which is an achievable concentration when a person drinks 2-8 cups of green tea while fasting.

[1] = intraperitoneal glucose tolerance test after intravenous epicatechin (FIG. 1); type: in vivo; settings: rats; epicatechin intravenously 30 min before glucose loading 2 g/kg
Procedure: Each epicatechin was injected intravenously 30 min before the glucose loading.

[2] = tested on: cultured adipocytes, myocytes and hepatocytes; assay: glucose uptake ability at cultured cells (FIG. 3); type: cell-based; settings: for normal glucose uptake mechanism after a meal: hepatocytes, adipocytes and muscle cells
Excerpt: We can see that basal glucose uptake ability and insulin stimulated glucose uptake ability decreased based on the given EGCG concentration.

[3] = adipocytes, myocytes and hepatocytes, based on the given EGCG concentration

| SMILES | effect on KATP channels (KATP channels) | blood glucose concentration during intraperitoneal glucose tolerance test [1] | normal glucose uptake mechanism after a meal [2] | effective concentration for KATP channel inhibition (KATP channels) | sensitivity of ATP and PIP to the KATP channel (KATP channels) | effective concentration for decreasing ATP and PIP sensitivity of the KATP channel (KATP channels; stated as 'could be') [µM] | blood EGCG level at which the glucose uptake inhibition can occur [2] | basal glucose uptake ability [2, 3] | insulin stimulated glucose uptake ability [2, 3] |
| --- | --- | --- | --- | --- | --- | --- | --- | --- | --- |
| O=C(O[C@@H]1Cc2c(O)cc(O)cc2O[C@@H]1c1ccc(O)c(O)c1)c1cc(O)c(O)c(O)c1 [ECG, (−)-epicatechin-3-gallate] | inhibited | High blood glucose level | inhibited | – | – | – | – | – | – |
| O=C(O[C@@H]1Cc2c(O)cc(O)cc2O[C@@H]1c1cc(O)c(O)c(O)c1)c1cc(O)c(O)c(O)c1 [EGCG, (−)-epigallocatechin-3-gallate] | inhibited | High blood glucose level | inhibited | more than 10 μM | decreases | 1 to 10 | lower than 10 μM | decreased | decreased |
